Laboratory results from patent US20070167411A1, “Compositions for treating angina” (Medicure International Inc., priority 2003, published 2007).

Assays:
[1] = system: isolated non-ischemic working rat heart; experiment: Glucose oxidation rates in isolated working rat heart perfusion ([14C] glucose, 14CO2 production); details: 60 minutes aerobic perfusion, compound added about 5 minutes into aerobic period, saline control 1580±183
Experimental: The goal was to determine if […] altered glucose oxidation rates or cardiac function in the isolated non-ischemic working rat heart model. This was achieved by subjecting rat hearts to 60 minutes of aerobic perfusion. […] was added about 5 minutes into the aerobic period and the effects of […] on glucose metabolism was determined during the aerobic period. […] Rat hearts were cannulated for isolated working heart perfusions as described previously (Lopaschuk et al., J Pharmacol Exp Ther. 1993 Jan; 264(1):135-44). In brief, male Sprague-Dawley rats (0.3-0.35 kg) were anesthetized with pentobarbital sodium (60 mg/kg i.p.). The hearts were quickly excised, the aorta was cannulated, and a retrograde perfusion at 37° C. was initiated at a hydrostatic pressure of 60 mm Hg. Hearts were trimmed of excess tissue, and the pulmonary artery and the opening to the left atrium were then cannulated. […] Spontaneously beating hearts were used in all perfusions, heart rate and aortic pressure were measured with a Biopac Systems Inc. blood pressure transducer connected to the aortic outflow line. Cardiac output and aortic flow were measured with Transonic […] ultrasonic flow probes in the preload and afterload lines, respectively. Coronary flow was calculated as the difference between cardiac output and aortic flow. […]

[2] = water, alcohol, and ether; cited from earlier work

| Compound | glucose oxidation rates [1] | solubility [2] |
| --- | --- | --- |
| O=C(O)C(Cl)Cl [DCA, dichloroacetic acid, reference compound] | 2422±140 |  |
| Cc1ncc(COP(=O)(O)O)c(C=O)c1O [Example P5P, 3-hydroxy-2-methyl-5-[(phosphonooxy)methyl]-4-pyridine-carboxaldehyde] | 2253±230 | essentially insoluble in water, alcohol, and ether |
